ChEMBL document CHEMBL3621118, “Virtual screening for novel Atg5Atg16 complex inhibitors for autophagy modulation” (2015)
Activity calls are given as the source filed them. No cut-off for these calls is given here.

Assays:
A2780 [1] = test: Inhibition of PBS-induced autophagy in human A2780 cells assessed as decrease in depletion of p62 level at 50 to 100 uM preincubated for 1 hr followed by PBS induction measured after 3 hrs by Western blot analysis; format: functional, cell-based
A2780 [2] = test: Inhibition of PBS-induced autophagy in human A2780 cells assessed as decrease in LC3-2 level at 50 to 100 uM preincubated for 1 hr followed by PBS induction measured after 3 hrs by Western blot analysis; format: functional, cell-based
MCF7 = test: Inhibition of chloroquine-induced autophagy in human MCF7 cells assessed as suppression of autophagosome formation at 25 uM after 5 hrs by MDC staining-based fluorescence microscopic analysis; format: functional, cell-based
A2780 [3] = test: Inhibition of PBS-induced autophagy in human A2780 cells assessed as decrease in depletion of p62 level preincubated for 1 hr followed by PBS induction measured after 3 hrs by Western blot analysis; format: functional, cell-based
A2780 [4] = test: Inhibition of PBS-induced autophagy in human A2780 cells assessed as decrease in LC3-2 level preincubated for 1 hr followed by PBS induction measured after 3 hrs by Western blot analysis; format: functional, cell-based
[5] = Cytotoxicity against human NCI60 cells assessed as cell growth at 10 uM after 24 hrs by SRB assay relative to control; format: functional; conditions: NCI60, 24 h, read-out: Activity

Row | Compound | inhibition (A2780 [1]) | inhibition (A2780 [2]) | inhibition (MCF7) | inhibition (A2780 [3]) | inhibition (A2780 [4]) | growth at 10 µM [5]
1 | O=C(CNC(=O)c1ccc(Cl)cc1Cl)OCC(=O)c1ccc(Br)cc1 | inactive | inactive |  |  |  | 
2 | O=C(NC1CCN(Cc2ccccc2)CC1)c1ccc(Cl)cc1Cl | inactive | inactive |  |  |  | 
3 | O=C(NCCCOc1ccccc1)c1cccc2ccccc12 | Active | Active | Active |  |  | 
4 | O=C(NCCCCc1ccccc1)c1ccc(Cl)cc1Cl |  |  | Active | Dose-dependent effect | Dose-dependent effect | 
5 | Cc1ccc(OCC(=O)Nc2ccc(N3CCN(C(=O)c4ccco4)CC3)cc2)cc1 | Active | Active |  |  |  | 
6 | O=C(NCCCCc1ccccc1)c1cccc(Br)c1 | inactive | inactive |  |  |  | 
7 | O=C(NCCCCc1ccccc1)c1ccc(Br)cc1 | inactive | inactive |  |  |  | 
8 | O=C(NCCCc1ccccc1)c1ccccc1 | inactive | inactive |  |  |  | 
9 | O=C(NCCCCc1ccccc1)c1ccccc1Br | inactive | inactive |  |  |  | 
10 | O=C(NCCCCc1ccccc1)c1ccccc1F | Active | Active |  |  |  | 
11 | Cc1cccc(CS(=O)(=O)NCc2ccc(N3CCCC3)cc2)c1 | Active | Active | Active |  |  | 90.1%
12 | COc1ccc(NC(=O)C(=O)NCCN2CCN(C(=O)c3ccc(Cl)cc3Cl)CC2)cc1 | inactive | inactive |  |  |  | 
